In patent publication US9670204B2, “Compounds and pharmaceutical compositions thereof for the treatment of inflammatory disorders” (Galapagos NV, priority 2013, dated 2017):

Tests used:
hENPP2 [1] = target: T1, hENPP2 (UniProtKB/SwissProt Q13822) (Homo sapiens (Human), UniProt Q13822); experiment: hENPP2 biochemical assay, LPC as substrate; details: LPC (palmitoyl 16:0) as substrate
How it was run: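 Human ENPP2 in 50 mM Tris-HCl pH 8.5, 500 mM NaCl, 5 mM KCl, 10 mM CaCl2, 0.1% fatty-acid-free BSA, reacted 30 min at 37 °C with LPC 16:0 (150 µM solution added 1:1). Released choline measured via choline oxidase/peroxidase/TOOS/4-aminoantipyrine quinoneimine dye at 555 nm; IC50 reported.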

hENPP2 [2] = target: T1, hENPP2; experiment: fluorescent hENPP2 biochemical assay, FS-3 as substrate; details: read-out: FS3-IC50
Method: Compound IC50 values are determined in a fluorescent hENPP2 (UniProtKB/SwissProt Sequence ref Q13822) biochemical assay using the fluorogenic autotaxin substrate FS-3 as substrate. FS-3 is a doubly labeled analog of LPC wherein the fluorophore is quenched through intramolecular energy transfer. Without hENPP2, the emission of the probe is quenched. If the substrate is hydrolyzed by hENPP2, the emission of the probe is not quenched anymore resulting in a fluorescence increase.
The enzyme is diluted in 50 mM Tris-HCl pH 8.0, 250 mM NaCl, 5 mM KCl, 1 mM MgCl2, 1 mM CaCl2, 0.1% fatty acid free BSA in a total volume of 20 μL. Enzyme mixture is added to compounds and the resulting mixture is incubated for 30 min at room temperature under shaking. The reaction is started by the addition of 20 μL of 0.75 μM FS-3 diluted in the same buffer as described above and the mixture is incubated at 30° C. for 30 min. Fluorescence is read on the Envision (Excitation 485 nm, emission 520 nm).

Row | IC50 (hENPP2 [1]) [nM] | IC50 (hENPP2 [2]) [nM] | SMILES
1 | > 1000 | 0.01 to 100 | CCc1nc2ccc(N3CCC(O)CC3)cn2c1N(C)c1nc(-c2ccc(F)cc2)cs1 [Compound 211, 1-(2-ethyl-3-((4-(4-fluorophenyl)thiazol-2-yl)(methyl)amino)imidazo[1,2-a]pyridin-6-yl)piperidin-4-ol]
2 | > 1000 | 0.01 to 100 | CCc1nc2ccc(N3CCN(C(=O)OC(C)(C)C)CC3)cn2c1N(C)c1nc(-c2ccc(F)cc2)cs1 [Compound 23, tert-butyl 4-(2-ethyl-3-((4-(4-fluorophenyl)thiazol-2-yl)(methyl)amino)imidazo[1,2-a]pyridin-6-yl)piperazine-1-carboxylate]
3 | 500 to 1000 | 0.01 to 100 | CCc1nc2ccc(C3CCN(C4CN(C(C)=O)C4)CC3)cn2c1N(C)c1nc(-c2ccc(F)cc2)cs1 [Compound 134, 1-(3-(4-(2-ethyl-3-((4-(4-fluorophenyl)thiazol-2-yl)(methyl)amino)imidazo[1,2-a]pyridin-6-yl)piperidin-1-yl)azetidin-1-yl)ethanone]
4 | > 1000 | 0.01 to 100 | CCc1nc2ccc(C3=CCS(=O)(=O)CC3)cn2c1N(C)c1nc(-c2ccc(Cl)cc2)cs1 [Compound 76, 4-(2-ethyl-3-((4-(4-chlorophenyl)thiazol-2-yl)(methyl)amino)imidazo[1,2-a]pyridin-6-yl)-3,6-dihydro-2H-thiopyran 1,1-dioxide]
5 | > 1000 | 0.01 to 100 | CCc1nc2ccc(N3CCN(S(=O)(=O)CC(=O)OC)CC3)cn2c1N(C)c1nc(-c2ccc(F)cc2)cs1 [Compound 59, methyl 2-(4-(2-ethyl-3-((4-(4-fluorophenyl)thiazol-2-yl)(methyl)amino)imidazo[1,2-a]pyridin-6-yl)piperazin-1-ylsulfonyl)acetate]
6 | 100 to 500 | 0.01 to 100 | CCc1nc2ccc(C3CCN(CC(=O)N4CC(O)C4)CC3)cn2c1N(C)c1nc(-c2ccc(F)cc2C#N)c(C)s1 [Compound 172, 2-(2-((2-ethyl-6-(1-(2-(3-hydroxyazetidin-1-yl)-2-oxoethyl)piperidin-4-yl)imidazo[1,2-a]pyridin-3-yl)(methyl)amino)-5-methylthiazol-4-yl)-5-fluorobenzonitrile]
7 | > 1000 | 0.01 to 100 | CCc1nc2ccc(C3=CCN(S(C)(=O)=O)CC3)cn2c1N(C)c1nc(-c2ccc(F)cc2)c(F)s1 [Compound 77, N-(2-ethyl-6-(1-(methylsulfonyl)-1,2,3,6-tetrahydropyridin-4-yl)imidazo[1,2-a]pyridin-3-yl)-5-fluoro-4-(4-fluorophenyl)-N-methylthiazol-2-amine]
8 | > 1000 | 0.01 to 100 | CCc1nc2ccc(N3CCN(C(=O)OC(C)(C)C)CC3)cn2c1N(C)c1nc(-c2ccc(Cl)cc2)ns1 [Compound 225, tert-butyl 4-(3-((3-(4-chlorophenyl)-1,2,4-thiadiazol-5-yl)(methyl)amino)-2-ethylimidazo[1,2-a]pyridin-6-yl) piperazine-1-carboxylate]
9 | > 1000 | 0.01 to 100 | CCc1nc2ccc(N3CCN(S(=O)(=O)CC(=O)O)CC3)cn2c1N(C)c1nc(-c2ccc(F)cc2)cs1 [Compound 60, 2-(4-(2-ethyl-3-((4-(4-fluorophenyl)thiazol-2-yl)(methyl)amino)imidazo[1,2-a]pyridin-6-yl)piperazin-1-ylsulfonyl)acetic acid]
10 | > 1000 | 0.01 to 100 | CCc1nc2ccc(C3CCN(CC(=O)N(C)C)CC3)cn2c1N(C)c1nc(-c2ccc(F)cc2)c(CO)s1 [Compound 157, 2-(4-(2-ethyl-3-((4-(4-fluorophenyl)-5-(hydroxymethyl)thiazol-2-yl)(methyl)amino)imidazo[1,2-a]pyridin-6-yl)piperidin-1-yl)-N,N-dimethylacetamide]
11 | > 1000 | 0.01 to 100 | CCc1nc2ccc(N3CCN(C(=O)C(C)=O)CC3)cn2c1N(C)c1nc(-c2ccc(F)cc2)cs1 [Compound 200, 1-(4-(2-ethyl-3-((4-(4-fluorophenyl)thiazol-2-yl)(methyl)amino)imidazo[1,2-a]pyridin-6-yl)piperazin-1-yl)propane-1,2-dione]
12 | > 1000 | 0.01 to 100 | CCc1nc2ccc(N3CCN(S(=O)(=O)CCCN4CCCC4)CC3)cn2c1N(C)c1nc(-c2ccc(F)cc2)cs1 [Compound 57, N-(2-ethyl-6-(4-(3-(pyrrolidin-1-yl)propylsulfonyl)piperazin-1-yl)imidazo [1,2-a]pyridin-3-yl)-4-(4-fluorophenyl)-N-methylthiazol-2-amine]
13 | > 1000 | 0.01 to 100 | CCC(=O)N1CCN(c2ccc3nc(CC)c(N(C)c4nc(-c5ccc(F)cc5)cs4)n3c2)CC1 [Compound 51, 1-(4-(2-ethyl-3-((4-(4-fluorophenyl)thiazol-2-yl)(methyl)amino)imidazo[1,2-a]pyridin-6-yl)piperazin-1-yl)propan-1-one]
14 | > 1000 | 0.01 to 100 | CCc1nc2ccc(C3CCN(S(C)(=O)=O)CC3)cn2c1N(C)c1nc(-c2ccc(OC)cc2)cs1 [Compound 82, N-(2-ethyl-6-(1-(methylsulfonyl)piperidin-4-yl)imidazo [1,2-a]pyridin-3-yl)-4-(4-methoxyphenyl)-N-methylthiazol-2-amine]
15 | > 1000 | 0.01 to 100 | CCOC(=O)CN1CCN(c2ccc3nc(CC)c(N(C)c4nc(-c5ccc(Cl)cc5)cs4)n3c2)C1=O [Compound 184, ethyl 2-(3-(3-((4-(4-chlorophenyl)thiazol-2-yl)(methyl)amino)-2-ethylimidazo[1,2-a]pyridin-6-yl)-2-oxoimidazolidin-1-yl)acetate]
16 | 500 to 1000 | 0.01 to 100 | CCc1nc2ccc(C3CCN(S(=O)(=O)CCCN)CC3)cn2c1N(C)c1nc(-c2ccc(F)cc2)cs1 [Compound 90, N-(6-(1-(3-aminopropylsulfonyl)piperidin-4-yl)-2-ethylimidazo[1,2-a]pyridin-3-yl)-4-(4-fluorophenyl)-N-methylthiazol-2-amine]
17 | > 1000 | 0.01 to 100 | CCc1nc2ccc(C3=CCOCC3)cn2c1N(C)c1nc(-c2ccc(Cl)cc2)cs1 [Compound 221, 4-(4-chlorophenyl)-N-(6-(3,6-dihydro-2H-pyran-4-yl)-2-ethylimidazo[1,2-a]pyridin-3-yl)-N-methylthiazol-2-amine]
18 | > 1000 | 0.01 to 100 | CCc1nc2ccc(C3CCN(C(=O)OC(C)(C)C)CC3O)cn2c1N(C)c1nc(-c2ccc(F)cc2)cs1 (stereo not drawn) [Compound 78, tert-butyl 4-(2-ethyl-3-((4-(4-fluorophenyl)thiazol-2-yl)(methyl)amino)imidazo[1,2-a]pyridin-6-yl)-3-hydroxypiperidine-1-carboxylate]
19 | > 1000 | 0.01 to 100 | CCc1nc2ccc(N3CCN(S(=O)(=O)CC(N)=O)CC3)cn2c1N(C)c1nc(-c2ccc(F)cc2)cs1 [Compound 61, 2-(4-(2-ethyl-3-((4-(4-fluorophenyl)thiazol-2-yl)(methyl)amino)imidazo[1,2-a]pyridin-6-yl)piperazin-1-ylsulfonyl)acetamide]
20 | 100 to 500 | 0.01 to 100 | CCc1nc2ccc(C3CCN(S(C)(=O)=O)CC3)cn2c1N(C)c1nc(-c2ccc(F)cc2)c(C(C)=O)s1 [Compound 105, 1-(2-((2-ethyl-6-(1-(methylsulfonyl)piperidin-4-yl)imidazo[1,2-a]pyridin-3-yl)(methyl)amino)-4-(4-fluorophenyl)thiazol-5-yl)ethanone]
21 |  | 0.01 to 100 | CCc1nc2ccc(N3CCC(F)(F)CC3)cn2c1N(C)c1nc(-c2ccc(F)cc2)cs1 [Compound 232, N-(6-(4,4-difluoropiperidin-1-yl)-2-ethylimidazo[1,2-a]pyridin-3-yl)-4-(4-fluorophenyl)-N-methylthiazol-2-amine]
22 |  | 0.01 to 100 | CCc1nc2ccc(C3=NC(C)CO3)cn2c1N(C)c1nc(-c2ccc(F)cc2)cs1 (stereo not drawn) [Compound 237, N-(2-ethyl-6-(4-methyl-4,5-dihydrooxazol-2-yl)imidazo[1,2-a]pyridin-3-yl)-4-(4-fluorophenyl)-N-methylthiazol-2-amine]
23 |  | 100 to 500 | CCc1nc2ccc(C3=NC(C(=O)O)CO3)cn2c1N(C)c1nc(-c2ccc(F)cc2)cs1 (stereo not drawn) [Compound 238, 2-(2-ethyl-3-((4-(4-fluorophenyl)thiazol-2-yl)(methyl)amino)imidazo[1,2-a]pyridin-6-yl)-4,5-dihydro-oxazole-4-carboxylic acid]
24 |  | 0.01 to 100 | CCc1nc2ccc(N3CCNCC3)cn2c1N(C)c1nc(-c2ccc(F)cc2)cs1 [Gen-10-e]

Row | SMILES | IC50 (hENPP2 [1]) [nM] | IC50 (hENPP2 [2]) [nM]
25 | CCc1nc2ccc(C3CCN(S(C)(=O)=O)CC3)cn2c1N(C)c1nc(-c2ccc(F)cc2)c(CC#N)s1 [Compound 186, 2-(2-((2-ethyl-6-(1-(methylsulfonyl)piperidin-4-yl)imidazo[1,2-a]pyridin-3-yl)(methyl)amino)-4-(4-fluorophenyl)thiazol-5-yl)acetonitrile] | > 1000 | 0.01 to 100
26 | [2H]c1sc(N(c2c(CC)nc3ccc(C4CCN(S(C)(=O)=O)CC4)cn23)C([2H])([2H])[2H])nc1-c1ccc(F)cc1 [Compound 103, 4-(4-fluorophenyl)-N-(2-ethyl-6-(1-(methylsulfonyl)piperidin-4-yl)imidazo [1,2-a]pyridin-3-yl)-N-(d3-methyl)-(d-thiazol-2)-amine] | 100 to 500 | 0.01 to 100
